Reference: ChEMBL document CHEMBL5038665, “Identification of the Benzoimidazole Compound as a Selective FLT3 Inhibitor by Cell-Based High-Throughput Screening of a Diversity Library” (J Med Chem, 2022)
Activity calls are given as the source filed them. The rule behind the calls is not given here.

Columns and labels:
[1] = Antiproliferative activity against human ML-1 cells expressing wild type FLT3 assessed as reduction in cell viability measured after 72 hrs by MTS assay; format: functional, cell-based; conditions: ML1, 72 h
HL-60 = assay: Antiproliferative activity against human HL-60 cells expressing wild type FLT3 assessed as reduction in cell viability measured after 72 hrs by MTS assay; format: functional, cell-based; conditions: HL-60, 72 h
[2] = Antiproliferative activity against mouse BaF3 cells expressing wild type FLT3 assessed as reduction in cell viability measured after 72 hrs by MTS assay; format: toxicity, cell-based
MOLM-13 = assay: Antiproliferative activity against human MOLM-13 cells harboring FLT3-ITD mutant assessed as reduction in cell viability measured after 72 hrs by MTS assay; format: functional, cell-based; conditions: MOLM-13, 72 h
[3] = Antiproliferative activity against mouse Ba/F3 FLT3-ITD cells assessed as reduction in cell viability measured after 72 hrs by MTS assay; format: functional, cell-based
MV4-11 = assay: Antiproliferative activity against human MV4-11 cells harboring FLT3-ITD mutant assessed as reduction in cell viability measured after 72 hrs ny MTS assay; format: functional, cell-based; conditions: MV4-11, 72 h
[4] = biological target: Serine/threonine-protein kinase B-raf (Homo sapiens, UniProt P15056); assay: Inhibition of BRAF (unknown origin)
Serine/threonine-protein kinase B-raf, sequence (P15056 whole entry): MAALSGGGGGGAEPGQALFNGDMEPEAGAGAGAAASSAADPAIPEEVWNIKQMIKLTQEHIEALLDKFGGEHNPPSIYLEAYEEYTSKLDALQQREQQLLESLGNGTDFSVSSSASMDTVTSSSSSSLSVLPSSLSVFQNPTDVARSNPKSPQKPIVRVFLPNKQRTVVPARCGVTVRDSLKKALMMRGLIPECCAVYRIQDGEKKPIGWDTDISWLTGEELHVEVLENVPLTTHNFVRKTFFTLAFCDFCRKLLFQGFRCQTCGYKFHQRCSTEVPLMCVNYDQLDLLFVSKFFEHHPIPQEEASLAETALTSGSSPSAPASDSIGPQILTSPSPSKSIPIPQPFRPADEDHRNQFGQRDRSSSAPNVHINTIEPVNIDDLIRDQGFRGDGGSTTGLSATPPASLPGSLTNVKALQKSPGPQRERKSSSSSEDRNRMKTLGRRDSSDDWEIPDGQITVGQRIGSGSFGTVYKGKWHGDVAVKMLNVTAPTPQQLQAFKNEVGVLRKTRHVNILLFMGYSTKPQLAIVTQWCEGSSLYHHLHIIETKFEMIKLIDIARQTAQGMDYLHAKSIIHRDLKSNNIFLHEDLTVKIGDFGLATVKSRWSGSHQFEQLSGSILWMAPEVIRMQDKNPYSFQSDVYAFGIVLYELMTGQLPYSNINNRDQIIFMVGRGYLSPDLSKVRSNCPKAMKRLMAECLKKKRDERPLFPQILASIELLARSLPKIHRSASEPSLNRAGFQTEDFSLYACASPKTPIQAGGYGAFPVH

[5] = biological target: Fibroblast growth factor receptor 1 (Homo sapiens, UniProt P11362); assay: Inhibition of FGFR1 (unknown origin)
Fibroblast growth factor receptor 1, sequence (P11362 whole entry): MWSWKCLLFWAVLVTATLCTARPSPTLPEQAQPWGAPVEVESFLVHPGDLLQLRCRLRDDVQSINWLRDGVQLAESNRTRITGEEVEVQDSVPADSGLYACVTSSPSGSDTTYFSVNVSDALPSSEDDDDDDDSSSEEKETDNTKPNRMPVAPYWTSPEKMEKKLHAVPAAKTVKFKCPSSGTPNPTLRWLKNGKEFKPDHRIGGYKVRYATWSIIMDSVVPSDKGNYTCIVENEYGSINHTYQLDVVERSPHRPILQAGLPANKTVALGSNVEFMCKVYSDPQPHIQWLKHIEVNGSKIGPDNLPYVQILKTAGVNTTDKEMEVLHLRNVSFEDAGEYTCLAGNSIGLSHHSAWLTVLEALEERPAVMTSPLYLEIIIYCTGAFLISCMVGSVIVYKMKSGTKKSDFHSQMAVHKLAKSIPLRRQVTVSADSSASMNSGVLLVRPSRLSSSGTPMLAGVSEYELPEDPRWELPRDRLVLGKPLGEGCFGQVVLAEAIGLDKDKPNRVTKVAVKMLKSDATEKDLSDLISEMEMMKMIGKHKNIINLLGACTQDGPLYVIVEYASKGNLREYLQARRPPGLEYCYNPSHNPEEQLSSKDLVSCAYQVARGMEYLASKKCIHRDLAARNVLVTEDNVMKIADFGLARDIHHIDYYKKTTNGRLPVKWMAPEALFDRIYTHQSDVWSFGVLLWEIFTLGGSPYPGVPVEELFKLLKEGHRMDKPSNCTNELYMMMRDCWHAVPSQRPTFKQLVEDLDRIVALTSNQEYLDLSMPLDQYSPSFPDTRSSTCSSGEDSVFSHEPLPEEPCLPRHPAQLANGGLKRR

[6] = biological target: Mast/stem cell growth factor receptor Kit (Homo sapiens, UniProt P10721); assay: Inhibition of KIT (unknown origin)
Mast/stem cell growth factor receptor Kit, sequence (P10721 whole entry): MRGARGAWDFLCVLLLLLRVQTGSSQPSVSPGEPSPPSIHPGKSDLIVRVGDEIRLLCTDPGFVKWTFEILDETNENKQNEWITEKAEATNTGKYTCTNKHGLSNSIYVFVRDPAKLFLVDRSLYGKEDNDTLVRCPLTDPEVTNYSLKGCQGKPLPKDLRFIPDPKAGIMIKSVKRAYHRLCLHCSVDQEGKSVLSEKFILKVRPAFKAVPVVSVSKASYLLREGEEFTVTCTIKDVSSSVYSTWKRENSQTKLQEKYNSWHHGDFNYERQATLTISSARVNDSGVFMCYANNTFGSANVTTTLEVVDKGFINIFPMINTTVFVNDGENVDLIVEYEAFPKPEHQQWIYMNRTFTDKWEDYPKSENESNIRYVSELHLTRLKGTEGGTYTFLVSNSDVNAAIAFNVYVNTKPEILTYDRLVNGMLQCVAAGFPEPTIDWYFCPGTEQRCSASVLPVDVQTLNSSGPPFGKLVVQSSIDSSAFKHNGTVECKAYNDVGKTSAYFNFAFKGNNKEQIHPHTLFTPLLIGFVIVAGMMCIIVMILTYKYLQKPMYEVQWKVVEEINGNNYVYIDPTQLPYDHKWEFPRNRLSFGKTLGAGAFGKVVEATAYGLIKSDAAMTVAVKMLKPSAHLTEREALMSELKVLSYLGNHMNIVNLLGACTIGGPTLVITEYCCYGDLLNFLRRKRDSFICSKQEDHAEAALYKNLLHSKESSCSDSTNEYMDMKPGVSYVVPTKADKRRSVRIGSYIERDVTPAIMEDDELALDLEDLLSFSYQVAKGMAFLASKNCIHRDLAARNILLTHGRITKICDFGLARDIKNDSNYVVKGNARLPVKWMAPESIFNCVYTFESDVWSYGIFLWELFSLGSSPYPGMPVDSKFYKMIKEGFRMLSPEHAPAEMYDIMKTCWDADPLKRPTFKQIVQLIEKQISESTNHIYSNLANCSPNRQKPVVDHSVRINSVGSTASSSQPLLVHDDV

[7] = biological target: T1, Receptor-type tyrosine-protein kinase FLT3 (Homo sapiens, UniProt P36888); assay: Inhibition of FLT3 (unknown origin)
T1 sequence (P36888 whole entry): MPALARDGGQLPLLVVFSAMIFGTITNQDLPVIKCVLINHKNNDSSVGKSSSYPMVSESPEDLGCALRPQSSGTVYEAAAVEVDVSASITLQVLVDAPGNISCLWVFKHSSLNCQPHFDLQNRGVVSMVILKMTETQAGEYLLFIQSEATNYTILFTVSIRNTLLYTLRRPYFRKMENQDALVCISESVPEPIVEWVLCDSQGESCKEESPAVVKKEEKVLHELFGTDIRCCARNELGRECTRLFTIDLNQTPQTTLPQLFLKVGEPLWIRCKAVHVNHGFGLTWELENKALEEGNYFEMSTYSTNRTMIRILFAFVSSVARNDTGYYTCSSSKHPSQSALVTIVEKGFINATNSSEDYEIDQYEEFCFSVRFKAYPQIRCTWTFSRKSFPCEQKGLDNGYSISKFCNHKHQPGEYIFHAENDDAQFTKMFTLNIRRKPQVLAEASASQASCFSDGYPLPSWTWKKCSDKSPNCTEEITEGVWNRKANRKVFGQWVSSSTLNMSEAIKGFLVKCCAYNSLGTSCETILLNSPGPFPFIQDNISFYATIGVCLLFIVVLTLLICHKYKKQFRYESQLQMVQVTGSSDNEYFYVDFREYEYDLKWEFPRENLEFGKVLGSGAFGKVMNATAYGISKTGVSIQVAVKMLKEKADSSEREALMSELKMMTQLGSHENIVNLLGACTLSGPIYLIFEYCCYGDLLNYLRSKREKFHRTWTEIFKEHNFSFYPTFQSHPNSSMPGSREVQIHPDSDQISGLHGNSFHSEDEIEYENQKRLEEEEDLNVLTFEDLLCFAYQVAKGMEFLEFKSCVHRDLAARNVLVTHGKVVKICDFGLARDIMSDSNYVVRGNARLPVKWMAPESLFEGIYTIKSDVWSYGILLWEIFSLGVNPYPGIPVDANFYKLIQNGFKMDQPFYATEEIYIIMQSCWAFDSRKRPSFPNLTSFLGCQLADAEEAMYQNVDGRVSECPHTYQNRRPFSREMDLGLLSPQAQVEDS

[8] = biological target: Receptor-type tyrosine-protein kinase FLT3 (Homo sapiens, UniProt P36888, ITD); assay: Inhibition of FLT3-ITD mutant (unknown origin)
[9] = biological target: Receptor-type tyrosine-protein kinase FLT3 (Homo sapiens) (UniProt P36888); assay: Inhibition of FLT3 phosphorylation in human MV4-11 cells assessed as reduction in phosphorylated FLT3 level measured after 12 hrs by western blot analysis; format: cell-based
[10] = biological target: T2, Receptor-type tyrosine-protein kinase FLT3 (Mus musculus) (UniProt Q00342); assay: Inhibition of FLT3 phosphorylation in mouse Ba/F3 FLT3-ITD cells assessed as reduction in phosphorylated FLT3 level measured after 12 hrs by western blot analysis; format: cell-based
T2 sequence (whole entry): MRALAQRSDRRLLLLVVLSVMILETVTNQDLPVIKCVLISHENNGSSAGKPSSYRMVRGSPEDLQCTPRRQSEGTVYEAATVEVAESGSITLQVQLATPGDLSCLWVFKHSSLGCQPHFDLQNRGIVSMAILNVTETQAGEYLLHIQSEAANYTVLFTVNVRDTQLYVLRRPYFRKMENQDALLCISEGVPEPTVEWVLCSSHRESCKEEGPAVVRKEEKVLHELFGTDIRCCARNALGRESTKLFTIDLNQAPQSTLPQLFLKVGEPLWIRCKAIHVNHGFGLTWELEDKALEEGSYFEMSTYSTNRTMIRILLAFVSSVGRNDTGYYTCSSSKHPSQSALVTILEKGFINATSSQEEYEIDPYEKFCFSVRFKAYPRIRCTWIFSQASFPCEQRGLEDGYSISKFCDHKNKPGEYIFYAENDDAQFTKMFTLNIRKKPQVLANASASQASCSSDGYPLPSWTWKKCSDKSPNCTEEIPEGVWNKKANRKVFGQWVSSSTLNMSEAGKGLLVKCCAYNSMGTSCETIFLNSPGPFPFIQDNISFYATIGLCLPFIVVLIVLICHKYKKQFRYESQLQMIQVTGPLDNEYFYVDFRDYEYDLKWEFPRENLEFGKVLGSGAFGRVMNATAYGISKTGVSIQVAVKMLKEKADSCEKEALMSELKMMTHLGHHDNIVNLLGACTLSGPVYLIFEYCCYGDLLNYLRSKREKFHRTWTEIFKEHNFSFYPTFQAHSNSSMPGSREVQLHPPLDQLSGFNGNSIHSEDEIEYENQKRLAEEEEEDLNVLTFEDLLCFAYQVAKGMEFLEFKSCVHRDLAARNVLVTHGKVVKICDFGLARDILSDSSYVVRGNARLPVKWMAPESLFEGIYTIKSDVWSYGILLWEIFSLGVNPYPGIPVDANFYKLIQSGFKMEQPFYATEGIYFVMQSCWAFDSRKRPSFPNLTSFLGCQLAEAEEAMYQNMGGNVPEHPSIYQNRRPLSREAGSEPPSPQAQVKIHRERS

Monocyte = assay: Antiproliferative activity against human peripheral blood monocyte cells assessed as cell growth inhibition at 6 to 200 uM measured after 72 hrs by MTS assay; format: toxicity, cell-based; conditions: dose 6-200 µM
[11] = biological target: T2, Receptor-type tyrosine-protein kinase FLT3 (Mus musculus); assay: Inhibition of FLT3 phosphorylation in mouse Ba/F3 FLT3-ITD cells assessed as reduction in phosphorylated FLT3 level at 0.3 to 100 nM by sandwich ELISA assay; format: cell-based; conditions: dose 0.3-100 nM
[12] = biological target: Receptor-type tyrosine-protein kinase FLT3 (Homo sapiens) (UniProt P36888); assay: Inhibition of FLT3 phosphorylation in human MOLM-13 cells assessed as reduction in phosphorylated FLT3 level at 0.3 to 100 nM by sandwich ELISA assay; format: cell-based; conditions: dose 0.3-100 nM
[13] = biological target: Receptor-type tyrosine-protein kinase FLT3 (Homo sapiens) (UniProt P36888); assay: Inhibition of FLT3 phosphorylation in human MV4-11 cells assessed as reduction in phosphorylated FLT3 level at 0.3 to 100 nM by sandwich ELISA assay; format: cell-based; conditions: dose 0.3-100 nM
[14] = biological target: Receptor-type tyrosine-protein kinase FLT3 (Homo sapiens) (UniProt P36888); assay: Inhibition of FLT3-mediated signalling pathway in human MV4-11 cells assessed as inhibition of MAPK phosphorylation at 50 nM by western blot analysis; format: cell-based; conditions: TDE = time-dependent effect
[15] = biological target: T2, Receptor-type tyrosine-protein kinase FLT3 (Mus musculus); assay: Inhibition of FLT3-mediated signalling pathway in mouse Ba/F3 FLT3-ITD cells assessed as inhibition of MAPK phosphorylation at 50 nM by western blot analysis; format: cell-based; conditions: TDE = time-dependent effect
[16] = biological target: Receptor-type tyrosine-protein kinase FLT3 (Homo sapiens) (UniProt P36888); assay: Inhibition of FLT3-mediated signalling pathway in human MV4-11 cells assessed as inhibition of STAT5 phosphorylation at 50 nM by western blot analysis; format: cell-based; conditions: TDE = time-dependent effect
[17] = biological target: T2, Receptor-type tyrosine-protein kinase FLT3 (Mus musculus); assay: Inhibition of FLT3-mediated signalling pathway in mouse Ba/F3 FLT3-ITD cells assessed as inhibition of STAT5 phosphorylation at 50 nM by western blot analysis; format: cell-based

| IC50 (HL-60) [nM] | IC50 (MOLM-13) [nM] | IC50 (MV4-11) [nM] | Compound | IC50 [1] [nM] | IC50 at 72 h [2] [nM] | IC50 [3] [nM] | also measured |
| --- | --- | --- | --- | --- | --- | --- | --- |
| > 50000 | 69.8 | 167 | OCCOc1ccc(CNc2ccc3c(c2)ncn3-c2ccccc2)cc1OCCO | > 50000 | > 400 | 77.8 | – |
| > 50000 | 113 | 189 | COc1ccc(CNc2ccc3c(c2)ncn3-c2ccccc2)cc1OC | > 50000 | > 400 | 94.8 | IC50 [4]: > 1000 nM; IC50 [5]: > 1000 nM; IC50 [6]: 451 nM; IC50 [7]: 30 nM; IC50 [8]: 90 nM; Activity [9]: 1 nM; Activity [10]: 10 nM; Activity (Monocyte): Not Active; inhibition [11]: Active; inhibition [12]: Active; inhibition [13]: Active; inhibition [14]: Tde; inhibition [15]: Tde; inhibition [16]: Tde; inhibition [17]: Active |
| 500 | – | – | CNC(=O)c1cc(Oc2ccc(NC(=O)Nc3ccc(Cl)c(C(F)(F)F)c3)cc2)ccn1 [SORAFENIB] | 500 | – | – | – |
| > 50000 | 78.2 | 197 | COc1ccc(CNc2ccc3c(c2)ncn3-c2ccccc2)cc1OCCO | > 50000 | > 400 | 75.4 | – |
